Assay results taken from patent US20250382556A1, “MODULATION OF THE BRANCHED-CHAIN METABOLITE CONTENT OF FRUITS AND VEGETABLES” (BOARD OF TRUSTEES OF MICHIGAN STATE UNIVERSITY, priority 2024, published 2025).

Test system: flowering quince peel
Assay: Free amino acid content of flowering quince peel via UPLC-MS/MS after AHAS inhibitor treatment
Type: in vivo, Chaenomeles x superba
Set-up: key to free asparagine content compared to control / free aspartate content compared to control / free cysteine content compared to control / free glutamate content compared to control / free glutamine content compared to control / free glycine content compared to control / free lysine content compared to control / free phenylalanine content compared to control / free threonine content compared to control / free tryptophan content compared to control / free tyrosine content compared to control / free alanine content compared to control / free arginine content compared to control: —: Dash indicates no significant difference between treatments
Method: Whole apple fruit, freshly harvested and at an early stage of ripening (‘ripening’), were held at room temperature (22° C.) and rubbed daily with 3 mL of a freshly made 1mM solution of the inhibitor rimsulfuron (N-((4,6-dimethoxypyrimidin-2-yl)aminocarbonyl)-3-(ethylsulfonyl)-2-pyridinesulfonamide, made from DuPont MATRIX® SG, 25% w/w active ingredient; 0.1% Tween 20) or water solution containing 0.1% Tween 20 before preparation with further treatments. Flowering quince fruit were smaller than the apple fruit and had 2 mL of the control and treatment solutions applied daily at 22° C. ‘Gala’, ‘Empire’, and ‘Jonagold’ apple fruit were treated for four, nine, and seven days before further preparation, respectively. Flowering quince fruit were treated for six days before analysis. Headspace volatile emissions were monitored for three or four representative fruits during the incubation/treatment period to determine appropriate times for further treatments. During method testing, 1 mM solutions of the imidazolinone imazamox was also assessed with apple fruit (2-[4,5-dihydro-4-methyl-4-(1-methylethyl)-5-oxo-1H-imidazol-2-yl]-5-(methoxymethyl)-3-pyridinecarboxylic acid, made from RAPTOR®, 12.1% w/w active ingredient; 0.1% Tween 20).
After volatile analysis, apple peel disks, collected peel of flowering quince, and ‘Valery’ pulp section samples were held at −80° C. for further amino acid analysis.
Frozen samples were ground to a powder in liquid nitrogen-chilled mortar and pestles. About 500 mg of tissue was vortexed for 10 sec in 2 mL of room temperature (22° C.) extraction solution (1:1:1 water:acetonitrile:ethanol, v/v/v) spiked with 2 nmoles of U-^13C,^15N labeled amino acids (MilliporeSigma) as internal standards and heated for 15 min in a 65° C. water bath. Extracts were briefly chilled on ice before centrifugation at 4400×g for 15 min at 4° C. The supernatant was filtered by centrifugation (0.2 μm nylon centrifugal filter; Costar, Corning) at 21000×g for 5 min at room temperature. 10 μL of the filtrate was transferred to an autosampler vial and diluted 100-fold with 990 μL of 10.1 mM perfluorohexanoic acid (PFHA) spiked with […] of internal standard. Thus the final concentration of internal standard was ˜2 μM.
An amino acid standard series was prepared from a premade mixture (MilliporeSigma, AAS18) that contained equal molar amounts of cystine and all 20 proteinogenic amino acids save for tryptophan, asparagine, glutamine, and cysteine. An equal molar mixture of tryptophan, asparagine, glutamine, and cysteine was subsequently prepared. To avoid dilution errors or artefacts from differing buffers, these amino acid stocks were aliquoted and desiccated such that a five-part standard series ranging from 250 μM to 25 nM would be produced upon resuscitation with 10 μL of spiked extraction buffer and 990 μL spiked PFHA solution.
Samples and amino acids were held overnight at −20° C. before analysis. Amino acids were analyzed with a Xevo TQ-S Micro UPLC (H-Class)-MS/MS (Waters) at the Michigan State University Mass Spectrometry and Metabolomics Core. Conditions were as follows. HPLC column: Acquirt UPLC HSS T3, 2.1×100 mm, 1.7 μm particle size (Waters), with a 0.2 μm pre-column filter (Waters). Mobile phase: A) 10 mM PFHA in water, B) acetonitrile. LC gradient: linear gradient, slope setting=6, flow rate=0.3 mL·min^−1, step 1) 0 min, 100% A, 0% B, 2) 1 min, 100% A, 0% B, 3) 8 min, 35% A, 65% B, 4) 8.01 min, 10% A, 90% B, 5) 9 min, 10% A, 90% B, 6) 9.01 min, 100% A, 0% B, 7) 13 min, 100% A, 0% B. Column temp: 40° C. Autosampler temp: 10° C. Injection volume: 10 μL. Tune parameters: electrospray ionization, standard ESI probe, capillary voltage=+1.0 kV, source temp=120° C., desolvation temp=350° C., desolvation gas=800 L·hr^−1, cone gas=40 L·hr^−1. MS collection was split into three phases and were adjusted after checking the retention time of several samples; however proline was missed for apple and flowering quince samples. […]

[1] = Dr. Banks Pink flowering quince peel, 1 mM daily, six days

CCS(=O)(=O)c1cccnc1S(=O)(=O)NC(=O)Nc1nc(OC)cc(OC)n1 [rimsulfuron, N-((4,6-dimethoxypyrimidin-2-yl)aminocarbonyl)-3-(ethylsulfonyl)-2-pyridinesulfonamide]
free alanine content compared to control [1]: —
free arginine content compared to control [1]: —
free asparagine content compared to control [1]: —
free aspartate content compared to control [1]: —
free cysteine content compared to control [1]: —
free glutamate content compared to control [1]: —
free glutamine content compared to control [1]: —
free glycine content compared to control [1]: —
free histidine content compared to control [1]: 166.5 ± 20.1%
free isoleucine content compared to control [1]: 51.3 ± 9.1%
free leucine content compared to control [1]: 81.9 ± 5.4%
free lysine content compared to control [1]: —
free methionine content compared to control [1]: 245.3 ± 38.5%
free phenylalanine content compared to control [1]: —
free serine content compared to control [1]: 302.1 ± 32.0%
free threonine content compared to control [1]: —
free tryptophan content compared to control [1]: —
free tyrosine content compared to control [1]: —
free valine content compared to control [1]: 28.1 ± 3.8%
leucine content reduced (flowering quince peel tissue): 18.1%
total content of free amino acids (flowering quince peel tissue): not significantly altered
valine and isoleucine collectively reduced (flowering quince peel tissue): 64.2%
